Measurements published in ChEMBL document CHEMBL5223082, “Alkyl-Aryl-Vancomycins: Multimodal Glycopeptides with Weak Dependence on the Bacterial Metabolic State” (J Med Chem, 2021).
Activity calls are given as the source filed them. The calls are words filed in the database; no cut-off is given here.

Assays:
[1] = test system: Staphylococcus aureus; assay: Bactericidal activity against methicillin-resistant Staphylococcus aureus ATCC 33591 assessed as log reduction in bacterial colonies at 2XMIC incubated for 24 hrs in broth solution followed by culturing for 24 hrs on agar plate by spot plating method; format: functional; conditions: time 48 hrs
[2] = test system: Enterococcus; assay: Potency index, ratio of Vancomycin MIC to test compound MIC for antibacterial activity against Vancomycin-resistant Enterococci ATCC 51575; format: functional
[3] = test system: Cell membrane; assay: Induction of cytoplasmic membrane permeabilization in Vancomycin-resistant Enterococci assessed as increase in fluorescence intensity at 10 uM measured for 30 to 40 mins by Propidium iodide staining based fluorescence analysis; format: subcellular; conditions: Enterococcus, time 30-40 min
[4] = test system: Staphylococcus aureus; assay: Antibacterial activity against stationary phase of Methicillin-resistant Staphylococcus aureus ATCC 33591 assessed as log reduction in bacterial colonies at 9 uM incubated for 12 hrs in broth solution followed by incubation on agar plate for 48 hrs by spot plating method; format: functional; conditions: time 60 hrs
[5] = test system: Enterococcus; assay: Bactericidal activity against Vancomycin-resistant Enterococci assessed as log reduction in bacterial colonies at 2XMIC incubated for 24 hrs in broth solution followed by culturing for 24 hrs on agar plate by spot plating method; format: functional; conditions: time 48 hrs
[6] = test system: Staphylococcus aureus; assay: Antibacterial activity against Methicillin-resistant Staphylococcus aureus ATCC 33591 assessed as inhibition of bacterial growth preincubated compound with N,N'-diacetyl-L-Lys-D-Ala-D-Ala for 10 mins followed by incubation with bacterial culture for 18 to 24 hrs by CLSI microbroth dilution method; format: functional; conditions: time 1090-1450 min
[7] = test system: Cell membrane; assay: Induction of Cytoplasmic membrane disruption in Bacillus subtilis 168 assessed as proportion of PI-stained cells at PEC incubated for 10 mins by SYTO9/PI staining based fluorescence microscopy; format: subcellular
[8] = test system: Staphylococcus aureus; assay: Antibacterial activity against Methicillin-resistant Staphylococcus aureus ATCC 33591 assessed as log reduction in bacterial colonies at 10XMIC incubated for 1 hr in broth solution followed by plating on nutrient agar plate; format: functional
[9] = test system: Enterococcus; assay: Potency index, ratio of Vancomycin MIC to test compound MIC for antibacterial activity against Vancomycin-resistant Enterococci ATCC 51559; format: functional
[10] = test system: Staphylococcus aureus; assay: Antibiofilm activity against Methicillin-resistant Staphylococcus aureus ATCC 33591 assessed as bacterial biofilm thickness at 20 uM incubated for 24 hrs by confocal laser scanning microscopy (reference value: 8 micrometer); format: functional
[11] = test system: Enterococcus; assay: Antibacterial activity against Vancomycin-resistant Enterococci NR30903 assessed as inhibition of bacterial growth incubated for 18 to 24 hrs by CLSI microbroth dilution method; format: functional; conditions: time 18-24 hrs
[12] = test system: Staphylococcus aureus; assay: Antibacterial activity against Methicillin-resistant Staphylococcus aureus ATCC 33591 persister cells assessed as log reduction in bacterial colonies at 9 uM incubated for 24 hrs in broth solution followed by incubation on agar plate for 48 hrs by spot plating method; format: functional; conditions: time 72 hrs
[13] = test system: Staphylococcus aureus; assay: Antibacterial activity against Methicillin-resistant Staphylococcus aureus ATCC 33591 assessed as inhibition of bacterial growth preincubated compound with teichoic-acid for 1 hr followed by incubation with bacterial culture for 18 to 24 hrs by CLSI microbroth dilution method; format: functional; conditions: time 19-25 hrs
[14] = test system: Enterococcus; assay: Antibacterial activity against Vancomycin-resistant Enterococci ATCC 51559 assessed as inhibition of bacterial growth incubated for 18 to 24 hrs by CLSI microbroth dilution method; format: functional; conditions: time 18-24 hrs
[15] = test system: Enterococcus; assay: Antibacterial activity against Vancomycin-resistant Enterococci NR30909 assessed as inhibition of bacterial growth incubated for 18 to 24 hrs by CLSI microbroth dilution method; format: functional; conditions: time 18-24 hrs
[16] = test system: Staphylococcus aureus; assay: Bactericidal activity against methicillin-resistant Staphylococcus aureus ATCC 33591 assessed as log reduction in bacterial colonies incubated for 2 hrs in broth solution followed by culturing for 24 hrs on agar plate by spot plating method; format: functional; conditions: time 26 hrs
[17] = test system: Staphylococcus aureus; assay: Antibacterial activity against Methicillin-resistant Staphylococcus aureus ATCC 33591 infected in BALB/c mouse thigh infection model assessed as log reduction in bacterial load at 12 mg/kg, ip starting at 1 hr post-infection and measured at 24 hrs post-drug treatment; format: functional
[18] = test system: Staphylococcus aureus; assay: Antibiofilm activity against Methicillin-resistant Staphylococcus aureus ATCC 33591 assessed as log reduction in bacterial viability within the biofilms at 20 uM incubated for 24 hrs in broth solution followed by culturing on agar plate for 24 hrs by spot plating method; format: functional; conditions: time 48 hrs
[19] = Renal toxicity in mouse assessed as blood urea nitrogen level at 12 mg/kg, ip measured after 48 hrs; format: organism-based; conditions: in vivo
[20] = Renal toxicity in mouse assessed as plasma creatinine level at 12 mg/kg, ip measured after 48 hrs; format: organism-based; conditions: in vivo
[21] = test system: Staphylococcus aureus; assay: Antibacterial activity against Methicillin-resistant Staphylococcus aureus ATCC 33591 persister cells assessed as log reduction in bacterial colonies at 4.5 uM incubated for 24 hrs in broth solution followed by incubation on agar plate for 48 hrs by spot plating method; format: functional; conditions: time 72 hrs
[22] = test system: Enterococcus; assay: Bactericidal activity against Vancomycin-resistant Enterococci assessed as log reduction in bacterial colonies at MIC incubated for 24 hrs in broth solution followed by culturing for 24 hrs on agar plate by spot plating method; format: functional; conditions: time 48 hrs
[23] = Induction of hemolysis in human erythrocytes at 250 uM incubated for 1 hr by microtiter plater reader analysis; format: toxicity, cell-based, Erythrocyte; conditions: read-out: Activity
[24] = test system: Bacillus subtilis; assay: Inhibition of cell wall biosynthesis in Bacillus subtilis 168 assessed as bubble-like formation on bacterial cell surface at PEC incubated for 15 mins by light microscopic analysis; format: functional, organism-based
[25] = Toxicity in BALB/c mouse assessed as adverse effects at 55.5 mg/kg, ip measured for 4 hrs; format: organism-based; conditions: in vivo
[26] = test system: Staphylococcus aureus; assay: Antibacterial activity against Methicillin-resistant Staphylococcus aureus ATCC 33591 assessed as time duration of post-antibiotic effect for suppression of bacterial growth at 10XMIC incubated for 1 hr in broth solution followed by washing for drug removal and subsequent plating on nutrient agar plate; format: functional
[27] = test system: Staphylococcus aureus; assay: Antibacterial activity against stationary phase of Methicillin-resistant Staphylococcus aureus ATCC 33591 assessed as log reduction in bacterial colonies at 9 uM incubated for 24 hrs in broth solution followed by incubation on agar plate for 48 hrs by spot plating method; format: functional; conditions: time 72 hrs
[28] = test system: Bacillus subtilis; assay: Antibacterial activity against Bacillus subtilis 168 assessed as inhibition of bacterial growth incubated for 18 hrs by turbidity based analysis; format: functional
[29] = Induction of hemolysis in human erythrocytes incubated for 1 hr by microtiter plater reader analysis; format: toxicity, cell-based, Erythrocyte
[30] = test system: Enterococcus; assay: Bactericidal activity against Vancomycin-resistant Enterococci assessed as log reduction in bacterial colonies at 4XMIC incubated for 6 hrs in broth solution followed by culturing for 24 hrs on agar plate by spot plating method; format: functional; conditions: time 30 hrs
[31] = test system: Enterococcus; assay: Antibacterial activity against Vancomycin-resistant Enterococci ATCC 51575 assessed as inhibition of bacterial growth incubated for 18 to 24 hrs by CLSI microbroth dilution method; format: functional; conditions: time 18-24 hrs
[32] = test system: Staphylococcus aureus; assay: Antibacterial activity against Methicillin-resistant Staphylococcus aureus ATCC 33591 persister cells assessed as log reduction in bacterial colonies at 4.5 uM incubated for 12 hrs in broth solution followed by incubation on agar plate for 48 hrs by spot plating method; format: functional; conditions: time 60 hrs
[33] = Toxicity in BALB/c mouse assessed as animal's survival rate at 55.5 mg/kg, ip measured for 14 days; format: organism-based; conditions: in vivo, time 14 day

CCCCCCCCCCNC(=O)C[N+](C)(C)CCCNC(=O)c1ccc(CN[C@@]2(C)C[C@H](O[C@H]3[C@H](Oc4c5cc6cc4Oc4ccc(cc4Cl)[C@@H](O)[C@@H](NC(=O)[C@@H](CC(C)C)NC)C(=O)N[C@@H](CC(N)=O)C(=O)N[C@H]6C(=O)N[C@H]4C(=O)N[C@H](C(=O)N[C@H](C(=O)O)c6cc(O)cc(O)c6-c6cc4ccc6O)[C@H](O)c4ccc(c(Cl)c4)O5)O[C@H](CO)[C@@H](O)[C@@H]3O)O[C@@H](C)[C@H]2O)cc1
Activity [1]: 6 log10CFU/ml | Ratio [2]: 1384 | Activity [3]: Active | Activity [4]: 1.9 log10CFU/ml | Activity [5]: 5 log10CFU/ml | MIC [6]: 0.9 µM | Activity [7]: 5% | Activity [8]: 0.8 log10CFU/ml | Ratio [9]: 1384 | Activity [10]: 3.5 um | MIC [11]: 0.45 µM | Activity [12]: 6 log10CFU/ml | MIC [13]: 0.9 µM | MIC [14]: 3.6 µM | MIC [15]: 0.9 µM | Activity [16]: 2 log10CFU/ml | Activity [17]: 2.8 log10CFU/g | Activity [18]: 2.2 log10CFU/ml | Activity [19]: 20.7 mg/dL | Activity [20]: 0.38 mg/dL | Activity [21]: 3.3 log10CFU/ml | Activity [22]: 0.7 log10CFU/ml | hemolysis at 1 h, 250 µM [23]: 1% | inhibition [24]: Active | Activity [25]: Non-Toxic | Time [26]: 23 h | Activity [27]: 2.4 log10CFU/ml | MIC [28]: 0.45 µM | HC50 at 1 h [29]: > 250 µM | Activity [30]: 0.5 log10CFU/ml | MIC [31]: 3.6 µM | Activity [32]: 1.6 log10CFU/ml | survival at 336 h [33]: 100%
